Measurements reported in ChEMBL document CHEMBL3045004, “Design, synthesis and in vitro antibacterial and antifungal activities of some novel spiro[azetidine-2,3-indole]-2,4(1H)-dione” (2011).
≈ marks a conversion by molar mass, not a printed value. Calls of active or inactive are those of the source. The calls are words filed in the database; no cut-off is given here.

Columns and labels:
[1] = tested on: Staphylococcus aureus; assay: Antibacterial activity against Staphylococcus aureus MTCC-96 after 24 hr by disk-diffusion method; assay type: functional
[2] = tested on: Pseudomonas aeruginosa; assay: Antibacterial activity against Pseudomonas aeruginosa MTCC-647 after 24 hr by disk-diffusion method; assay type: functional
[3] = tested on: Escherichia coli; assay: Antibacterial activity against Escherichia coli MTCC-521 after 24 hr by disk diffusion method; assay type: functional
[4] = tested on: Aspergillus niger; assay: Antifungal activity against Aspergillus niger MTCC-343 after 3 to 4 days by serial plate dilution method; assay type: functional; conditions: for MIC: Aspergillus niger, MTCC-343
[5] = tested on: Candida albicans; assay: Antifungal activity against Candida albicans MTCC-183 after 3 to 4 days by serial plate dilution method; assay type: functional; conditions: for MIC: Candida albicans, MTCC-183
[6] = tested on: Aspergillus niger; assay: Antifungal activity against Aspergillus niger MTCC-343 at >100 ug/ml after 3 to 4 days by serial plate dilution method; assay type: functional, organism-based
[7] = tested on: Candida albicans; assay: Antifungal activity against Candida albicans MTCC-183 at >100 ug/ml after 3 to 4 days by serial plate dilution method; assay type: functional, organism-based
[8] = Staphylococcus aureus, MTCC-96, 24 h
[9] = Pseudomonas aeruginosa, MTCC-647, 24 h
[10] = Escherichia coli, MTCC-521, 24 h

Compound	diameter of the inhibition zone (DIZ) [1]	MIC [1, 8]	diameter of the inhibition zone (DIZ) [2]	MIC [2, 9]	diameter of the inhibition zone (DIZ) [3]	MIC [3, 10]	inhibition zone (IZ) [4]	MIC [4]	inhibition zone (IZ) [5]	MIC [5]	Activity [6]	Activity [7]	MIC [1]	MIC [2]	MIC [3]
CC1(C)S[C@@H]2[C@H](NC(=O)[C@H](N)c3ccc(O)cc3)C(=O)N2[C@H]1C(=O)O [AMOXICILLIN]	29 mm	6.25 µg/mL (≈ 17.1 µM)	30 mm	6.25 µg/mL (≈ 17.1 µM)	25 mm	6.25 µg/mL (≈ 17.1 µM)									
Cc1ccccc1N1C(=O)C(Cl)C12C(=O)Nc1ccccc12 (stereo unspecified)	22 mm	12.5 µg/mL (≈ 40 µM)	17 mm	25 µg/mL (≈ 79.9 µM)	19 mm	25 µg/mL (≈ 79.9 µM)	24 mm	6.25 µg/mL (≈ 20 µM)	11 mm	25 µg/mL (≈ 79.9 µM)					
Cc1ccc(N2C(=O)C(Cl)C23C(=O)Nc2c(Br)cc(Br)cc23)cc1 (stereo unspecified)	24 mm	6.25 µg/mL (≈ 13.3 µM)	26 mm	6.25 µg/mL (≈ 13.3 µM)	22 mm	12.5 µg/mL (≈ 26.6 µM)			16 mm	12.5 µg/mL (≈ 26.6 µM)	inactive				
Cc1ccccc1N1C(=O)C(Cl)C12C(=O)Nc1c(Br)cc(Br)cc12 (stereo unspecified)	23 mm	6.25 µg/mL (≈ 13.3 µM)	24 mm	12.5 µg/mL (≈ 26.6 µM)	23 mm	6.25 µg/mL (≈ 13.3 µM)	17 mm	12.5 µg/mL (≈ 26.6 µM)	19 mm	6.25 µg/mL (≈ 13.3 µM)					
CCC(C)n1ncn(-c2ccc(N3CCN(c4ccc(OCC5COC(Cn6cncn6)(c6ccc(Cl)cc6Cl)O5)cc4)CC3)cc2)c1=O (stereo unspecified) [ITRACONAZOLE]							25 mm	6.25 µg/mL (≈ 8.86 µM)	27 mm	6.25 µg/mL (≈ 8.86 µM)					
Cc1ccc(N2C(=O)C(Cl)C23C(=O)Nc2ccccc23)cc1 (stereo unspecified)	19 mm	25 µg/mL (≈ 79.9 µM)	17 mm	25 µg/mL (≈ 79.9 µM)	20 mm	25 µg/mL (≈ 79.9 µM)	22 mm	6.25 µg/mL (≈ 20 µM)	16 mm	12.5 µg/mL (≈ 40 µM)					
O=C1C(Cl)C2(C(=O)Nc3c(Br)cc(Br)cc32)N1c1ccc([N+](=O)[O-])cc1 (stereo unspecified)	28 mm	6.25 µg/mL (≈ 12.5 µM)	28 mm	6.25 µg/mL (≈ 12.5 µM)	24 mm	6.25 µg/mL (≈ 12.5 µM)	23 mm	6.25 µg/mL (≈ 12.5 µM)	26 mm	6.25 µg/mL (≈ 12.5 µM)					
O=C1C(Cl)C2(C(=O)Nc3ccccc32)N1c1ccccc1[N+](=O)[O-] (stereo unspecified)	17 mm	12.5 µg/mL (≈ 36.4 µM)	19 mm	25 µg/mL (≈ 72.7 µM)	21 mm	12.5 µg/mL (≈ 36.4 µM)	17 mm	12.5 µg/mL (≈ 36.4 µM)				inactive			
O=C1C(Cl)C2(C(=O)Nc3c(Br)cc(Br)cc32)N1c1ccccc1 (stereo unspecified)	24 mm	6.25 µg/mL (≈ 13.7 µM)	26 mm	12.5 µg/mL (≈ 27.4 µM)	21 mm	12.5 µg/mL (≈ 27.4 µM)	14 mm	25 µg/mL (≈ 54.8 µM)	17 mm	12.5 µg/mL (≈ 27.4 µM)					
CN[C@@H]1[C@H](O[C@H]2[C@H](O[C@H]3[C@H](O)[C@@H](O)[C@H](N=C(N)N)[C@@H](O)[C@@H]3N=C(N)N)O[C@@H](C)[C@]2(O)C=O)O[C@@H](CO)[C@H](O)[C@H]1O [STREPTOMYCIN]	31 mm	6.25 µg/mL (≈ 10.7 µM)	31 mm	6.25 µg/mL (≈ 10.7 µM)	26 mm	6.25 µg/mL (≈ 10.7 µM)									
O=C1C(Cl)C2(C(=O)Nc3c(Br)cc(Br)cc32)N1c1ccccc1[N+](=O)[O-] (stereo unspecified)	27 mm	6.25 µg/mL (≈ 12.5 µM)	27 mm	6.25 µg/mL (≈ 12.5 µM)	21 mm	6.25 µg/mL (≈ 12.5 µM)	14 mm	25 µg/mL (≈ 49.8 µM)	19 mm	6.25 µg/mL (≈ 12.5 µM)					
O=C1C(Cl)C2(C(=O)Nc3ccccc32)N1c1ccccc1 (stereo unspecified)	21 mm	12.5 µg/mL (≈ 41.8 µM)	18 mm	25 µg/mL (≈ 83.7 µM)	19 mm	25 µg/mL (≈ 83.7 µM)	22 mm	12.5 µg/mL (≈ 41.8 µM)	23 mm	6.25 µg/mL (≈ 20.9 µM)					
GENTAMICIN													6.25 µg/mL	6.25 µg/mL	6.25 µg/mL
O=C1C(Cl)C2(C(=O)Nc3ccccc32)N1c1ccc([N+](=O)[O-])cc1 (stereo unspecified)	19 mm	25 µg/mL (≈ 72.7 µM)	17 mm	25 µg/mL (≈ 72.7 µM)	20 mm	25 µg/mL (≈ 72.7 µM)	24 mm	6.25 µg/mL (≈ 18.2 µM)	25 mm	6.25 µg/mL (≈ 18.2 µM)					
OC(Cn1cncn1)(Cn1cncn1)c1ccc(F)cc1F [FLUCONAZOLE]							26 mm	6.25 µg/mL (≈ 20.4 µM)	27 mm	6.25 µg/mL (≈ 20.4 µM)					
